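Results reflect a 48-hour exposure of cells in 96-well plates to compound at five concentrations. TGI denotes the concentration required for complete inhibition of growth.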
Test system: P388 leukemia
Assay: NCI tumour cell line growth inhibition, 48 h

## CCCCS(=N)(=O)CC[C@H](N)C(=O)O (stereo partly specified)
  TGI: 5 mM

— PubChem BioAssay (NCI)
